Data: patent US12503485B2, “Human aminosterol ENT-03 compounds, related compositions comprising the same, and methods of using the same” (Enterin, Inc., priority 2019, dated 2025)
Where “and” joins values, the source holds several entries; their conditions need not be identical. Equal values may be shown once. Read-outs that look alike come from different tables or passages of the source.

How the values were obtained:
PTPN11/SHP2-FL = target: T1, PTPN11/SHP2-FL (Homo sapiens, UniProt Q06124); assay: Phosphatase assay PTPN11/SHP2-FL with activating peptide; assay type: biochemical
T1 construct: aa 2-597, isoform 1 (canonical)); StrepII-TEV (N); His-tag (C); purchased Recation Biology Inc; host or cells: E. coli

PTPN7/LC-PTP = target: T2, PTPN7/LC-PTP (Homo sapiens, UniProt P35236); assay: Phosphatase assay PTPN7/LC-PTP; assay type: biochemical
T2 construct: purchased Recation Biology Inc

PTPN12/PTP-PEST = target: T3, PTPN12/PTP-PEST (Homo sapiens, UniProt Q05209); assay: Phosphatase assay PTPN12/PTP-PEST; assay type: biochemical
T3 construct: purchased Recation Biology Inc

[1] = Pharmacokinetic study, intravenous administration in male SD rats; assay type: in vivo; conditions: rat plasma, I.V. 5 mg/kg
Description: The objective of this example was to determine the pharmacokinetic profile of ENT-03 (Compound III) via intravenous and oral administration in male SD Rats.
Animal feeding control: Animals were food fasted overnight prior to dosing and fed 4 hours after administration having free access to water.
PK Sample Analyses: Concentrations of ENT-03 (Compound III) in the plasma and dose samples were analyzed using a LC-MS/MS method. WinNonlin (Phoenix™, version 6.1) or other similar software was used for pharmacokinetic calculations. The following pharmacokinetic parameters were calculated, whenever possible from the plasma concentration versus time data.
IV Bolus administration: T1/2, C0, AUClast, AUCinf, MRTinf, Cl, Vss, Number of Points for Regression.

[2] = Body weight of mice after i.p. deuterated ENT-03; assay type: in vivo
Description: The presence of the deuterium on the side chain likely slows the action of the 2-methylacyl-coenzyme A racemase on C-25, the subsequent action of the dehydrogenase that produces the 24,25-trans-unsaturated derivative by removing the deuterium atoms at C24 and C25, and the subsequent hydration and oxidation at the C24 bond catalyzed by the D-bifunctional protein. Instead, the metabolism of ENT-03D3 will begin with the oxidation at C24 by CYP46A1, yielding the following compound: […]

[3] = tested on: transcriptomes of the stomach, jejunum and ileum; assay type: in vivo; conditions: aged mice (78 weeks)
Xenopus leavis tadpole = assay: In vivo activity on Xenopus tadpole in water; conditions: 10 μg/ml in 500 ml distilled water, about 1 hour
Description: To assess the activity of ENT-05 in vivo, the compound was added to 500 ml of distilled water to a concentration of 10 μg/ml. A Xenopus leavis tadpole, premetamorphic, was placed into the solution. […] A second animal was placed in 500 ml of water, containing 10 μg/ml ENT-05, but also 50 mM NaCl. In this case, the animal survived. The animal was then transferred to spring water without either salt or ENT-05 and remained active over the following days.

[4] = Weight loss in C57bl/6 male mice, once weekly dosing; assay type: in vivo
hAPP-J20 mice = assay: Morris water maze, hAPP-J20 Alzheimer's mouse model; assay type: in vivo
[5] = tested on: transcriptomes of the stomach, jejunum and ileum; assay type: in vivo, mice
Description: Young (20 week) and aged (80 week) C57bl/6 male mice were administered ENT-03 (40 mg/kg) or vehicle (water) by oral gavage daily for 2 weeks. Over this period of time clinical observations were unremarkable as were the gross and microscopic examinations of the GI tract. The transcriptomes of the stomach, jejunum and ileum were analyzed by RNAseq technology. Comparative analyses of the transcripts from untreated animals identified numerous transcripts that differed in abundance between the corresponding tissues from old and young individuals. […] Thus, within these three distinct regions of the mouse GI tract, ageing is associated with changes in the transcriptome.
Statistical analysis of RNA-sequencing data was performed using R programming language. Transcripts with less than one read count per million reads in all samples of each tissue were removed. The raw count data for the samples were then normalised using trimmed mean of M-values normalisation and transformed with voom (Law et al., 2014), resulting in log 2-transformed counts per million with associated precision weights. […] Statistical comparisons were performed using linear modelling, as implemented in the Bioconductor package limma (Ritchie et al., 2015). Significance values (p-values) were adjusted for multiple testing using Benjamini-Hochberg procedure (Benjamini et al., 1995). For each comparison (e.g. group A versus group B), a positive log 2-transformed fold change indicates up-regulation in group A relative to group B.
To investigate the overlap between contrasts, the number of overlapping differentially expressed genes (defined using adjusted p-value <0.05) between all pairwise combinations of the comparisons performed were counted. For each comparison, the Jaccard index, defined as the intersection over the union, measures the similarity between the two contrasts under consideration. The p-value was calculated using a hypergeometric test taking into account the universe size under the assumption that the contrasts and genes are independent.

[6] = target: T4, PP2A Alpha/PP2R1A Complex (Homo sapiens, UniProt P67775); assay: Phosphatase assay PP2A Alpha/PP2R1A Complex; assay type: biochemical
T4 construct: purchased Recation Biology Inc

PS19 mice = assay: Morris water maze, PS19 tauopathy mouse model; assay type: in vivo; conditions: 2.5 mg/kg i.p. once per week for 6 weeks, vs vehicle
[7] = individual animals Rat 1-3, listed as ENT-03 (Compound III), 5 mg/kg
[8] = intraperitoneal 3, 5, 10 mg/kg once weekly over 2 weeks
[9] = intraperitoneal once weekly over 6 weeks
[10] = 2.5 mg/kg i.p. once per week for 6 weeks, vs vehicle

T4 sequence (P67775 whole entry): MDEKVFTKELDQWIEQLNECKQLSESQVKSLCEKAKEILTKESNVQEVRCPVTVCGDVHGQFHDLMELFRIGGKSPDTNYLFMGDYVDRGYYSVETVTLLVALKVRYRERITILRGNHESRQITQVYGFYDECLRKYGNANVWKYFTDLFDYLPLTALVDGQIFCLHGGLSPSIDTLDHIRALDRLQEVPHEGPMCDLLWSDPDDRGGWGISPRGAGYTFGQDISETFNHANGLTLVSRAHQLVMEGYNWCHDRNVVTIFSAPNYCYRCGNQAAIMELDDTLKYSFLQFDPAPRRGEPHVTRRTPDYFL
T4 sequence (P30153 whole entry partner): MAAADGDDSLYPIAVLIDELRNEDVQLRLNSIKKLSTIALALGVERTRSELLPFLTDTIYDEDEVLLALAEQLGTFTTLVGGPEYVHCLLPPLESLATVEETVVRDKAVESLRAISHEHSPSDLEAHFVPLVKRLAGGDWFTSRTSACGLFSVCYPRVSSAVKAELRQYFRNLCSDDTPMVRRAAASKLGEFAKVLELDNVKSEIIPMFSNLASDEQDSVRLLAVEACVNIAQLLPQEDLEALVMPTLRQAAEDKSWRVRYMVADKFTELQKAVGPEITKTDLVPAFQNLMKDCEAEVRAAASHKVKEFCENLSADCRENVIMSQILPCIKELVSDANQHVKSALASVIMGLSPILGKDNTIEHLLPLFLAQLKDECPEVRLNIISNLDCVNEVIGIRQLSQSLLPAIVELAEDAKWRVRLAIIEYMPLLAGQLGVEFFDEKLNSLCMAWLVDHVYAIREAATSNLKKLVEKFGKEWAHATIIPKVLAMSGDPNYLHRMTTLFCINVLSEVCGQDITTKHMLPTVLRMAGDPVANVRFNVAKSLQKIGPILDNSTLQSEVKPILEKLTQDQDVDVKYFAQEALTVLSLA
T2 sequence (P35236 whole entry): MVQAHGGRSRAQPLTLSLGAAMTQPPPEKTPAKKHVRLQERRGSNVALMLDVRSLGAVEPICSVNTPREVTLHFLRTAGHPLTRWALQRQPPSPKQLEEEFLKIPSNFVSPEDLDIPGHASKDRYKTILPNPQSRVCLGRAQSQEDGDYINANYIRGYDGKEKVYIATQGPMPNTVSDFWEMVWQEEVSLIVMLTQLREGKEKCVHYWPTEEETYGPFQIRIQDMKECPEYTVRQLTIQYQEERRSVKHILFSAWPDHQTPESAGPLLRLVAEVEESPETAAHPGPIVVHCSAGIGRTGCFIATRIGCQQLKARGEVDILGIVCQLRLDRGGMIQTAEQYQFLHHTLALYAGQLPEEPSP
T3 sequence (Q05209 whole entry): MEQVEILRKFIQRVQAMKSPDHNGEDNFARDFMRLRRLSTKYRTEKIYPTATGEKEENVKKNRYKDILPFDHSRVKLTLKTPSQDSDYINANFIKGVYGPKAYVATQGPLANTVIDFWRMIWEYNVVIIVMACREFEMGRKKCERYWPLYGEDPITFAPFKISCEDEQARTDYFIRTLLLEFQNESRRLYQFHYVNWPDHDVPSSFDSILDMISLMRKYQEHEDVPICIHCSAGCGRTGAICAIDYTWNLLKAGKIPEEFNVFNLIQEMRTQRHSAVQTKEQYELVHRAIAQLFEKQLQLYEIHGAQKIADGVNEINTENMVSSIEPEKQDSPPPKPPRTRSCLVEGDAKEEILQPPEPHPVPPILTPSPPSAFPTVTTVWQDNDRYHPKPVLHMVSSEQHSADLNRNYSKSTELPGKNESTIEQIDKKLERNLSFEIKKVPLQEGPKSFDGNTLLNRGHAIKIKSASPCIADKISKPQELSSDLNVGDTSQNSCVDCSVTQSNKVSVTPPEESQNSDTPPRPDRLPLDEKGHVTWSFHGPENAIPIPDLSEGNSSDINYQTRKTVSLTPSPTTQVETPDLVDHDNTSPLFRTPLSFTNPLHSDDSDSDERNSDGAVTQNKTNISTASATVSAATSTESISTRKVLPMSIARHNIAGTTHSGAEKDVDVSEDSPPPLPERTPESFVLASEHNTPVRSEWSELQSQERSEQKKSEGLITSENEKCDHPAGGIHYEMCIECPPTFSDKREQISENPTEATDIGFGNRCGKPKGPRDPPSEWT

## CC(C)[C@@H](CC[C@@H](C)[C@H]1CC[C@H]2[C@@H]3[C@H](O)C[C@H]4C[C@@H](NCCCNCCCCNCCCN)CC[C@]4(C)[C@H]3CC[C@]12C)OS(=O)(=O)O (single isomer, unassigned) [ENT-02, trodusquemine]
PTPN11/SHP2-FL
  activity against full length PTPN11/SHP2, in words: active
PTPN7/LC-PTP
  activity on PTPN7/LC-PTP, in words: target
PTPN12/PTP-PEST
  activity on PTPN12/PTP-PEST, in words: target

## CC(CCCC(C)C1CCC2C3C(O)CC4CC(NCCCNCCCCNCCCN)CCC4(C)C3CCC12C)C(=O)O (single isomer, unassigned; ent-03) [ENT-03, 3-β-Spermino-7α-hydroxy-5α-cholestanoic acid]
[1]; Mean of 3 male SD rats
  AUClInf: 986.457 µg·h/mL
  AUClast: 609.005 µg·h/mL
  AUC—%Extrap—obs: 38.2%
  C0: 86.337 µg/mL
  Cl_obs: 5.1 mL/h/kg
  MRTInf—obs: 24.6 h
  T1/2: 18.2 h
  Vss—obs: 0.125 L/kg
[1]; [7]
  AUClInf: 922.477 µg·h/mL and 941.13 µg·h/mL and 1095.763 µg·h/mL
  AUClast: 557.542 µg·h/mL and 608.321 µg·h/mL and 661.154 µg·h/mL
  AUC—%Extrap—obs: 39.6% and 35.4% and 39.7%
  C0: 80.402 µg/mL and 102.409 µg/mL and 76.2 µg/mL
  Cl_obs: 5.42 mL/h/kg and 5.31 mL/h/kg and 4.57 mL/h/kg
  MRTInf—obs: 25.3 h and 22.9 h and 25.5 h
  T1/2: 18.6 h (2×) and 17.5 h
  Vss—obs: 0.137 L/kg and 0.122 L/kg and 0.116 L/kg
[2]
  effect on body weight, in words: loss of weight
[3]
  genes increased upon treatment that decreased in expression with ageing: 36 genes
Xenopus leavis tadpole
  effect on tadpole: No similar effect
[4]; [8]
  clinical appearance of treated animals: clinically normal
  weight loss, in words: dose dependent weight loss
[4]; [9]
  clinical appearance of treated animals: clinically normal
  weight loss, in words: dose dependent weight loss
hAPP-J20 mice; [10]
  learning during the training phase: improved
  memory on the probe day: improved
hAPP-J20 mice; 2.5 mg/kg/wk i.p. over 6 weeks
  latency to find the hidden platform during the training phase: decreased
[5]; ileum, treated aged mice
  number of differentially expressed genes: 1162 genes
[5]; ileum, treated young mice
  number of differentially expressed genes: 80 genes
[5]; jejunum and ileum, both young and aged mice
  genes changed significantly in response to exposure: no more than 2 genes
[5]; jejunum, treated aged mice
  number of differentially expressed genes: 382 genes
[5]; jejunum, treated young mice
  number of differentially expressed genes: 42 genes
[5]; stomach, aged mice, gene named in value
  Ageing genes complemented by ENT-03 (30 most significant) Stomach: shadow of prion protein
[5]; stomach, old mice, P<0.0001 hypergeometric test
  genes down-regulated in ageing overlapping with genes up-regulated by treatment: 37 genes
[5]; stomach, treated aged mice, 40 mg/kg oral daily 2 weeks, p(adj)<0.05
  number of differentially expressed genes: 63 genes
[5]; stomach, treated young (20 week) mice, 40 mg/kg oral daily 2 weeks, p(adj)<0.05
  number of differentially expressed genes: 13 genes
[5]; stomach, young mice
  ageing genes further down regulated in the ageing direction by treatment: 12 genes
[5]; young and aged C57bl/6 male mice, 40 mg/kg oral gavage daily 2 weeks
  clinical observations and gross and microscopic examinations of the GI tract: unremarkable
[6]
  activity at PP2A alpha, in words: inactive
[6]; Table 2B, read-out: Compound IC50 (M) PP2A Alpha/PP2R1A Complex
  IC50: > 0.0001 M
PS19 mice
  learning during the training phase: improved
  memory on the probe day: improved
